For the assay, the system named is Jurkat cells. As to the kind of experiment: Survival of Jurkat cells after cryopreservation (Trypan blue staining, automated cell counter). The assay is classed as cell-based, human. The following applies: Jurkat cells incubated 24 hours (50-200 μM Compound 2, with or without 200 mM Tre), slowly frozen at −80° C., thawed quickly; FIG. 2. As for the experimental part:
Fully acetylated Tre (Compound 2, FIG. 1) has been synthesized, and incubated with Jurkat cells, a human T-cell line.
In accordance with a method of the present invention, mammalian cells are incubated with a solution containing cell-permeable variants of Tre. Preferably, the incubation time is at least 24 hours, more preferably, 24 to 96 hours, and most preferably about 48 hours. The cells are then frozen, preferably to about −80° C. or colder and thawed. Suitable freezing techniques include freezing the cells slowly, using for example a cryo 1° C. freezing container (“Mr. Frosty”), and freezing the cells quickly, for example, by plunging them into liquid nitrogen. Preferably, the frozen cells are thawed quickly, but they may also be thawed slowly. The % cell survival is measured, preferably using Trypan blue staining and an automated cell counter. […]
Jurkat cells were incubated for 24 hours with each of the following solutions: 0 mM Tre, 200 mM Tre, 50 μM Compound 2, 100 μM Compound 2, 200 μM Compound 2, 50 μM Compound 2+200 mM Tre, 100 μM Compound 2+200 mM Tre, and 200 μM Compound 2+200 mM Tre. The cells were then slowly frozen at −80° C. using a cryo 1° C. freezing container (“Mr. Frosty”) and thawed quickly. % cell survival was measured using Trypan blue staining and automated cell counter.

Molecules are shown by their SMILES.

In the case of `CC(=O)OCC1OC(OC2OC(COC(C)=O)C(OC(C)=O)C(OC(C)=O)C2OC(C)=O)C(OC(C)=O)C(OC(C)=O)C1OC(C)=O` (stereo not shown) [Compound 2, fully acetylated trehalose], the “survival after freezing and thawing” value is reported as “improved survival”.

Source of the values: patent publication US20130331353A1, “CELL-PERMEABLE VARIANTS OF TREHALOSE AND METHODS FOR THE PROTECTION OF LIVING CELLS” (UNION COLLEGE, priority 2012, published 2013).
